Laboratory results taken from patent publication US9399145B2, “Nanoscale neuromodulating platform for retina neuron activation apparatus and method” (The Board of Trustees of the University of Illinois, priority 2005, dated 2016).

Legend:
[1] = tested on: GABAARs of cerebellar PNs; assay: Whole-cell voltage clamp of cerebellar Purkinje neurons in slices, GABA-evoked currents with UV/blue light; type: cell-based, mouse; details: 10 μM GABA + 30 μM MPC088 by pressure pipette
Description: To evaluate the efficacy of MPC088 in GABAAR-expressing cells in situ, whole-cell voltage-clamp experiments were conducted on Purkinje neurons (PNs) in parasagittal slices from mouse cerebellum (Häusser et al. (1997); Smith et al. (2003)) (FIG. 40). […] The cell was flashed with UV light (1 s, shuttered from a mercury arc lamp), then blue light (1 s, from a 470 nm LED), and then again with UV light (1 s). […] The magnitude of the UV-to-blue transition was calculated as (B-UV1)/UV1; that of the blue-to-UV transition was calculated as (UV2-B)/UV2. […] For the negative control experiments (i.e., those involving exposure to vehicle or propofol alone) in which no light-evoked current was detectable, current was measured for identical epochs at the terminations of the light pulses.
Experiments on cerebellar PNs employed acute slices obtained from cerebella of 16-30 day-old C57/BL6 mice (Charles River Laboratories). After induction of deep anesthesia with isoflurane, mice were decapitated, and the cerebellum vermis was removed and placed in an ice-cold cutting solution containing (in mM): 85 NaCl, 2.5 KCl, 0.5 CaCl2, 4 MgCl2, 1.25 NaH2PO4, 24 NaHCO3, 25 glucose, and 75 sucrose. A Leica VT1000 vibratome was used to cut 250 μm thick, sagittal slices from the cerebellar vermis. […]

[2] = tested on: AMPAR/NMDAR-mediated EPSCs; assay: AMPAR/NMDAR-mediated EPSCs in hippocampal CA1 pyramidal neurons; type: cell-based, mouse
Description: To test whether MPC088 affects excitatory synaptic transmission, whole-cell voltage-clamp recordings were carried out in CA1 pyramidal neurons of mouse hippocampus. As in the experiments of FIG. 42, these recordings were obtained with perfusion of the slice with cis-dominant MPC088 (30 μM) under recirculation. PTX […] was also included in the external solution to block GABAARs. EPSCs were evoked by stimulating the Schaffer collaterals with a bipolar matrix microelectrode (FHC, Inc., Bowdoin, Me.), and recorded at a holding potential of +40 mV to uncover the NMDA receptor (NMDAR) component of the EPSC. Paired electrical stimuli separated by 80 ms were also presented to assess possible effects of MPC088 on short-term plasticity. Each cell was […] 20 interleaved trials in which the cell was exposed to two 0.1-s UV pulses surrounding a 1-s period of either blue light or no light (FIG. 50). […] Each trace is the average of 10 traces with stimulus and shutter artifacts blanked for clarity. The black and grey asterisks indicate the time points, respectively, for the current measurements of the AMPAR- and NMDAR-mediated components. FIG. 50b depicts summary data including that shown in a. Plotted for the blue light and no blue light conditions are the average current amplitudes measured at the peak of the first EPSC (black bars), and just prior to the second stimulus (grey bars), as indicated by the asterisks in a.
To quantify the effects of MPC088 on AMPA receptors (AMPARs) and NMDARs, for the first EPSC of the pair, the peak current and the current just prior to the second stimulus were measured, which reflect AMPAR and NMDAR components, respectively, of the EPSC^41. […] Additionally, blue light had no significant effect on the decay of the compound current (average τ from single-exponential fitting to the decay of the second EPSC: Blue off, 131±11 ms; Blue on, 131±11 ms; p=0.89). There was also no significant effect of blue light on the paired-pulse ratio (PPR, measured as Peak(2nd EPSC)/Peak(1st EPSC): Blue off, 1.72±0.07; Blue on, 1.85±0.14; p=0.34).
Recordings from hippocampal CA1 pyramidal neurons were obtained from 17-23 day old animals. Briefly, the hippocampus was completely removed from the brain and then sliced in 300-μm sections. Prior to recording, a cut was made with a scalpel blade between CA1 and CA3 in order to completely sever all connections between the two; this was done in order to abolish polysynaptic activity due to antidromic activation of CA3 pyramidal cells. Recordings were carried out under voltage clamp with an internal solution containing (in mM): 130 CsCl, 10 HEPES, 1 CaCl2, 2 ATP, 0.2 GTP, 10 EGTA, and 5 QX-314 Br, and pH was adjusted to 7.3 with CsOH. All data from these experiments are presented as mean±SEM.

[3] = target: T1, GABAAR subtype that consists of a pentameric assembly of p1 subunits (Homo sapiens, UniProt P24046); assay: Oocytes expressing the GABAAR subtype of p1 subunits; type: cell-based
T1 construct: expressed in transfected cells; host or cells: Xenopus oocytes

[4] = target: T2, α1β2γ2 GABAARs (rat α1, rat β2 and human γ2S) (UniProt P18507+P62813+P63138); assay: Two-electrode voltage clamp of α1β2γ2 GABAAR-expressing Xenopus oocytes; type: cell-based; details: for rate constant 1/τ of UV-induced decrease in membrane current (de-potentiation): 3 μM GABA and 1 μM MPC088
T2 construct: expressed in transfected cells; host or cells: Xenopus laevis oocytes
Text: Purple and gray bars indicate periods of presentation of UV light (purple) and high-intensity visible light (High-Vis) (gray), respectively. […] These amplitude determination conditions are denoted by numbers beneath the waveform in FIG. 35d.
In each of the MPC088 experiments, the cis-dominant form was generated by UV light during static bathing. […] Numbers beneath the waveform in FIG. 2(c) denote amplitude determination conditions for that experiment.
Oocytes expressing α1β2γ2 receptors (rat α1, rat β2 and human γ2S) were prepared and studied by two-electrode voltage-clamp recording^58 (holding potential: −70 mV; amplifier: GeneClamp500B; Axon Instruments, Foster City, Calif.). Unless otherwise indicated, oocytes were superfused with Ringer solution (physiological saline) at a rate of ˜1 mL/min. The experiments of FIGS. 35d-e, 36c-e and 47 involved periods of static bathing, i.e., halted superfusion. The γ2(A79C) subunit was prepared by site-directed mutagenesis. Oocyte electrophysiological experiments were carried out in room light. A UV light-emitting diode (peak wavelength: 365 nm; Hamamatsu Photonics, Japan) and a microscope illuminator (white light; Schott Fostec, Auburn, N.Y.) provided UV and visible stimulating light. As measured at the position of the oocyte, the intensity of the UV light at 365 nm was 220 μW/mm^2. At 440 nm, the nominal strength of the visible (white) light (referred to as high-intensity visible light) was 28 μW/mm^2, and that of the ambient room illumination was 0.045 μW/mm^2. In all experiments, low-intensity visible light from the microscope illuminator (3 μW/mm^2 at 440 nm) was present at all times except those involving high-intensity visible illumination. Electrophysiological data were obtained using Clampex 8.2 (Axon Instruments), analyzed using Clampfit 10.0 (Axon Instruments) and OriginPro7.5 (OriginLab, Northampton, Mass.). All statistical analysis employed a two-sample t-test.

[5] = Spectrophotometric and NMR analysis of photoisomerization; type: physicochemical
Description: UV and visible light sources of the electrophysiological apparatus were used for the spectrophotometric and NMR experiments. MPC088 samples were analyzed as DMSO solutions in a quartz cuvette (spectrophotometry) and a DMSO-d6 solution in a quartz NMR tube.
To test the stability of cis-MPC088 in darkness, a preparation of 30 μM MPC088 in oocyte Ringer solution that had been converted to predominantly cis form by a 5-min UV illumination was spectrophotometrically analyzed. The sample was subsequently kept in darkness at room temperature.
The UV-induced decrease in membrane current was analyzed by fitting a simple exponential decay function to the waveforms obtained and determining the exponential time constant (τ).

[6] = 2.0 mM in DMSO-d6, before illumination
[7] = after UV illumination for 5 min
[8] = after UV, then visible light for 10 min

T2 sequence (P62813 28-455): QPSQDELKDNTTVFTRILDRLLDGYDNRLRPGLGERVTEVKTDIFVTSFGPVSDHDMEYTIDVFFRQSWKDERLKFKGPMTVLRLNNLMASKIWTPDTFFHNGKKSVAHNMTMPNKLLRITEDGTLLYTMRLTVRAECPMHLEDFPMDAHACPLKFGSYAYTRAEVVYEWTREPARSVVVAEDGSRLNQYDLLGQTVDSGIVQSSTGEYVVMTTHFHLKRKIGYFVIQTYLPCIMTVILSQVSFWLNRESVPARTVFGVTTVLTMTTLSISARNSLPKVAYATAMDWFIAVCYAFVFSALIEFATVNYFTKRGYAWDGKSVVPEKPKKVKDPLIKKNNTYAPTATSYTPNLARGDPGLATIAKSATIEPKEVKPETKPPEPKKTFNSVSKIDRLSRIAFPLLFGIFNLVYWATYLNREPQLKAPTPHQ
T2 sequence (P63138 25-474 limits assumed): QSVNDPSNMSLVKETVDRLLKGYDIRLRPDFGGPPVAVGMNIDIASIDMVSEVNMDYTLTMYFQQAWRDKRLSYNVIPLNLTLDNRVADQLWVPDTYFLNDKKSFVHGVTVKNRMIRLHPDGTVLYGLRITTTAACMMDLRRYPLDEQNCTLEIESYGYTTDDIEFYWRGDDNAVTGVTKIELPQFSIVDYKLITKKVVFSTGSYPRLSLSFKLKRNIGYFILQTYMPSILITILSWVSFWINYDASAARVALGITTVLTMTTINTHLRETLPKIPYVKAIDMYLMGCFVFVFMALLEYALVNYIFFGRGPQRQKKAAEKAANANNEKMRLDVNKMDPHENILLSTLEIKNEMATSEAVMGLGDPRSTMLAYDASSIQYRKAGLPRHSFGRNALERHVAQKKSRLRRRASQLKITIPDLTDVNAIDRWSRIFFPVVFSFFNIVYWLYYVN
T2 sequence (P18507 40-467 isoform P18507-1 limits assumed): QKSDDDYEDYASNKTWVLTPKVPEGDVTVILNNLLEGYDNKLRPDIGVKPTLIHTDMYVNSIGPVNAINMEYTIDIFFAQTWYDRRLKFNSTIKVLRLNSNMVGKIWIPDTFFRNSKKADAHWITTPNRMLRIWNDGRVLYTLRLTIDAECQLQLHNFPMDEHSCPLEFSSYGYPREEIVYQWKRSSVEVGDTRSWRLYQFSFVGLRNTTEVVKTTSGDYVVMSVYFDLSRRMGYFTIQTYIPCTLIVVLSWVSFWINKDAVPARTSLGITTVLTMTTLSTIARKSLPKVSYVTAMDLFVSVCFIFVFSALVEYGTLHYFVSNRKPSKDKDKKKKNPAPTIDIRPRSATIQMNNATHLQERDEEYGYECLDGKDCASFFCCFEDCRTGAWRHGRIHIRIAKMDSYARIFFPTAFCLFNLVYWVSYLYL
T1 sequence (P24046 22-479): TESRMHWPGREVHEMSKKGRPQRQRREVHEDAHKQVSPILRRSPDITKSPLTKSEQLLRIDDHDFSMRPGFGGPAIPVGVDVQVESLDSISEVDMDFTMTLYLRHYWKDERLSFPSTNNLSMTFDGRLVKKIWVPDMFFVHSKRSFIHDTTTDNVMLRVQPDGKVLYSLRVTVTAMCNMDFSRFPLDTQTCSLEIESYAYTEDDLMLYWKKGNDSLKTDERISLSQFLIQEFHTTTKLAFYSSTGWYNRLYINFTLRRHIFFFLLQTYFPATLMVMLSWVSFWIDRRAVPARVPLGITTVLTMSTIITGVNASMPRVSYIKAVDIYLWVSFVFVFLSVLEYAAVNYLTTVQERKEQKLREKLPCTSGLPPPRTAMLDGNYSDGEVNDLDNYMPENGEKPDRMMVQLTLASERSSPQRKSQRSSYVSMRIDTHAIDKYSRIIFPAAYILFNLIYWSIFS

GABAAR potentiating and direct agonist activities relative to parent propofol [4]: more than an order of magnitude
rate constant 1/τ of UV-induced decrease in membrane current (de-potentiation) ([4]; 10-fold reduced UV intensity): 0.13 ± 0.02 s⁻¹
rate constant 1/τ of UV-induced decrease in membrane current (de-potentiation) ([4]; nominal UV intensity): 0.43 ± 0.09 s⁻¹
potentiation of the GABA response ([4]; co-applied 3 μM GABA, MPC088 1 μM, MPD021 10 or 100 μM, MPC100 10 μM): markedly potentiated the GABA response
lowest concentration at which direct activation response is clearly evident ([4]; compound alone, no GABA): 4 µM
potency in direct activation relative to propofol ([4]; concentrations required for peak current equal to 40% of the 100 μM GABA-alone response): ~25 fold
cis-isomer content (1H NMR) [5, 6]: 6%
trans-isomer content (1H NMR) [5, 6]: 94%
time constant of absorbance change at 338 nm ([5]; UV light, nominal intensity): 1.7 ± 0.3 s
cis-isomer content (1H NMR) [5, 7]: 91%
trans-isomer content (1H NMR) [5, 7]: 9%
cis-isomer content (1H NMR) [5, 8]: 19%
trans-isomer content (1H NMR) [5, 8]: 81%
time constant of absorbance change at 338 nm ([5]; reduced-intensity UV light (10% of nominal)): 22 ± 3 s
time constant of absorbance change at 338 nm ([5]; visible light): 36 ± 2 s
Compound: CC(C)c1cc(CCCC(=O)NCc2ccc(/N=N/c3ccc(C(=O)NCCN)cc3)cc2)cc(C(C)C)c1O [MPC088, (E)-N-(2-Aminoethyl)-4-((4-((4-(4-hydroxy-3,5-diisopropylphenyl)butanamido)methyl)phenyl)diazenyl)benzamide]
mean ratio of absolute current magnitude in response to blue→UV/UV→blue [1]: 1.00±0.01
actions on AMPAR-mediated and NMDAR-mediated EPSCs ([2]; 30 μM): negligible actions on AMPAR-mediated and NMDAR-mediated EPSCs
average τ of decay of the second EPSC ([2]; 30 μM MPC088, Blue off): 131 ± 11 ms
paired-pulse ratio (PPR) ([2]; 30 μM MPC088, Blue off): 1.72±0.07
average τ of decay of the second EPSC ([2]; 30 μM MPC088, Blue on): 131 ± 11 ms
paired-pulse ratio (PPR) ([2]; 30 μM MPC088, Blue on): 1.85±0.14
potentiating and direct agonist activity [3]: lacked both potentiating and direct agonist activity
maximum current of direct activation relative to the 100 μM GABA response ([4]; compound alone): comparable with the peak current elicited by 100 μM GABA
